Test results: US20220112187A1, “PYRAZOLOPYRIDINE AMINE COMPOUNDS FOR THE TREATMENT OF AUTOIMMUNE DISEASE” (Hoffmann-La Roche Inc., priority 2018, published 2022)
pIC50: −log10 of the molar value.

biological target: T1, human TLR9 (Homo sapiens, UniProt Q9NR96); assay: HEK293-Blue-hTLR-9 cells assay (SEAP reporter, ODN2006 stimulation); format: cell-based; conditions: HEK293-Blue-hTLR9 cells, ODN2006 ligand, 20 hrs incubation
T1 sequence (Q9NR96 26-1032): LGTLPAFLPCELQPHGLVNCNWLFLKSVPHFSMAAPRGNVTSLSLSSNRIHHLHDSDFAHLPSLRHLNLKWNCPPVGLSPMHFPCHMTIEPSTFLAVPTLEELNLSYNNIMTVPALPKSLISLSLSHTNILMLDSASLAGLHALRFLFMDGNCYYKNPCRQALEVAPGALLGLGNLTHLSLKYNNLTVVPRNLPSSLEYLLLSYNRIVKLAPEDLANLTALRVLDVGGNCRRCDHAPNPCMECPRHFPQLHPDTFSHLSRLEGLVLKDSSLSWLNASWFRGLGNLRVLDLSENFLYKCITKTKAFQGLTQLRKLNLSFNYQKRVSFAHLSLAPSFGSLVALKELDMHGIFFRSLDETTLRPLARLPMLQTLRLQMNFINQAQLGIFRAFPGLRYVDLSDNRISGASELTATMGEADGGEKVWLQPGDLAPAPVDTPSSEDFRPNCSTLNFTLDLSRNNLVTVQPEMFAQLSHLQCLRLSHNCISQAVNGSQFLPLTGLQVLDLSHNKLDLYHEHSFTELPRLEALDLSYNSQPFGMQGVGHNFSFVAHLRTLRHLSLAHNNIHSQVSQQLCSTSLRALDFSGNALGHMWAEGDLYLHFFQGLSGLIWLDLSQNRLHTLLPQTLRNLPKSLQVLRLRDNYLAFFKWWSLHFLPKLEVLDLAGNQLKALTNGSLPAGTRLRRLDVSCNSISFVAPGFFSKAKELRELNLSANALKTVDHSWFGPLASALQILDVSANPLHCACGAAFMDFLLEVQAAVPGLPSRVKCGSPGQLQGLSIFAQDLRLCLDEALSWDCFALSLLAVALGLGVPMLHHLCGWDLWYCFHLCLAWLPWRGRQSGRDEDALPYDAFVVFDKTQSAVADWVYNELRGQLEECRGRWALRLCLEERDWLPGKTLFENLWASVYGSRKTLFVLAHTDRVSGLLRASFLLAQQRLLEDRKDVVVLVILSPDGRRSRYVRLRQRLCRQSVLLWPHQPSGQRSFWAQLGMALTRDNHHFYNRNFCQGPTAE
Text: A stable HEK293-Blue-hTLR-9 cell line was purchased from InvivoGen (Cat. #: hkb-htlr9, San Diego, Calif., USA). These cells were originally designed for studying the stimulation of human TLR9 by monitoring the activation of NF-κB. A SEAP (secreted embryonic alkaline phosphatase) reporter gene was placed under the control of the IFN-β minimal promoter fused to five NF-κB and AP-1-binding sites. The SEAP was induced by activating NF-κB and AP-1 via stimulating HEK-Blue hTLR9 cells with TLR9 ligands. Therefore the reporter expression was declined by TLR9 antagonist under the stimulation of a ligand, such as ODN2006 (Cat. #: tlr1-2006-1, Invivogen, San Diego, Calif., USA), for incubation of 20 hrs. The cell culture supernatant SEAP reporter activity was determined using QUANTI-Blue™ kit (Cat. #: rep-qb1, Invivogen, San Diego, Calif., USA) at a wavelength of 640 nm, a detection medium that turns purple or blue in the presence of alkaline phosphatase.
HEK293-Blue-hTLR9 cells were incubated at a density of 250,000˜450,000 cells/mL in a volume of 170 μL in a 96-well plate in Dulbecco's Modified Eagle's medium (DMEM) containing 4.5 g/L glucose, 50 U/mL penicillin, […], […], 2 mM L-glutamine, 10% (v/v) heat-inactivated fetal bovine serum with addition of 20 μL test compound in a serial dilution in the presence of final DMSO at 1% and 10 μL of 20 uM ODN2006 in above DMEM, perform incubation under 37° C. in a CO2 incubator for 20 hrs. Then 20 μL of the supernatant from each well was incubated with 180 μL Quanti-blue substrate solution at 37° C. for 2 hrs and the absorbance was read at 620-655 nm using a spectrophotorneter. The signalling pathway that TLR9 activation leads to downstream NF-κB activation has been widely accepted, and therefore similar reporter assay was modified for evaluating TLR9 antagonist.

Row | pIC50 | SMILES
1 | 6.85 | C[C@@H]1CN(c2ccc(C#N)n3nccc23)C[C@H](CN2CCC3NCCC3C2)O1 (stereo partly drawn) [Example 41, 4-[(2S,6R)-2-(1,2,3,3a,4,6,7,7a-octahydropyrrolo[3,2-c]pyridin-5-ylmethyl)-6-methyl-morpholin-4-yl]pyrazolo[1,5-a]pyridine-7-carbonitrile]
2 | 7.06 | C[C@@H]1CN(c2ccc(C#N)n3nccc23)C[C@H](CN2CCC3(CCCNC3)C2)O1 (stereo partly drawn) [Example 25, 4-[(2S,6R)-2-(2,9-diazaspiro[4.5]decan-2-ylmethyl)-6-methyl-morpholin-4-yl]pyrazolo[1,5-a]pyridine-7-carbonitrile]
3 | 4.80 | CC1CNCCN1C[C@H]1CN(c2ccc(C#N)n3nccc23)C[C@@H](C)O1 (single isomer, unassigned) [Example 50A]
4 | 7.19 | C[C@@H]1CN(c2ccc(C#N)n3nccc23)C[C@H](CN2CCCC3(CCNCC3)C2)O1 [Example 32, 4-[(2S,6R)-2-(2,9-diazaspiro[5.5]undecan-2-ylmethyl)-6-methyl-morpholin-4-yl]pyrazolo[1,5-a]pyridine-7-carbonitrile]
5 | 5.82 | C[C@@H]1CN(c2ccc(C#N)n3nccc23)C[C@H](CN2CCNCC2Cc2ccccc2)O1 (stereo partly drawn) [Example 59, 4-[(2S,6R)-2-[(2-benzylpiperazin-1-yl)methyl]-6-methyl-morpholin-4-yl]pyrazolo[1,5-a]pyridine-7-carbonitrile]
6 | 4.85 | CC1CN(C[C@H]2CN(c3ccc(C#N)n4nccc34)C[C@@H](C)O2)CCN1 (stereo partly drawn) [Example 28, 4-[(2R,6S)-2-methyl-6-[(3-methylpiperazin-1-yl)methyl]morpholin-4-yl]pyrazolo[1,5-a]pyridine-7-carbonitrile]
7 | 6.05 | C[C@@H]1CN(c2ccc(C#N)n3nccc23)C[C@H](CN2CCNCC2)O1 [Example 5, 4-[(2R,6S)-2-methyl-6-(piperazin-1-ylmethyl)morpholin-4-yl]pyrazolo[1,5-a]pyridine-7-carbonitrile]
8 | 7.01 | C[C@@H]1CN(c2ccc(C#N)n3nccc23)C[C@H](CN2CC3(CC(N)C3)C2)O1 [Example 11, 4-[(2S,6R)-2-[(6-amino-2-azaspiro[3.3]heptan-2-yl)methyl]-6-methyl-morpholin-4-yl]pyrazolo[1,5-a]pyridine-7-carbonitrile]
9 | 6.59 | C[C@@H]1CN(c2ccc(C#N)n3nccc23)C[C@H](CN2CC3CNCCC32)O1 (stereo partly drawn) [Example 52, 4-[(2S,6R)-2-(3,7-diazabicyclo[4.2.0]octan-7-ylmethyl)-6-methyl-morpholin-4-yl]pyrazolo[1,5-a]pyridine-7-carbonitrile]
10 | 4.80 | C[C@@H]1CN(c2ccc(C#N)n3nccc23)C[C@H](CN2CCC3(CCNC3)C2=O)O1 (stereo partly drawn) [Example 21, 4-[(2R,6R)-2-methyl-6-[(1-oxo-2,7-diazaspiro[4.4]nonan-2-yl)methyl]morpholin-4-yl]pyrazolo[1,5-a]pyridine-7-carbonitrile]
11 | 6.57 | C[C@@H]1CN(c2ccc(C#N)n3nccc23)C[C@H](CN2CCC(CCN)CC2)O1 [Example 13, 4-[(2S,6R)-2-[[4-(2-aminoethyl)-1-piperidyl]methyl]-6-methyl-morpholin-4-yl]pyrazolo[1,5-a]pyridine-7-carbonitrile]
12 | 6.28 | C[C@@H]1CN(c2ccc(C#N)n3nccc23)C[C@H](CN2CCC(N3CCCCC3)CC2)O1 [Example 16, 4-[(2R,6S)-2-methyl-6-[[4-(1-piperidyl)-1-piperidyl]methyl]morpholin-4-yl]pyrazolo[1,5-a]pyridine-7-carbonitrile]
13 | 7.51 | C[C@@H]1CN(c2ccc(C#N)n3nccc23)C[C@H](CN2CCC3(CCNC3)C2)O1 (stereo partly drawn) [Example 6, 4-[(2S,6R)-2-(2,7-diazaspiro[4.4]nonan-2-ylmethyl)-6-methyl-morpholin-4-yl]pyrazolo[1,5-a]pyridine-7-carbonitrile]
14 | 6.29 | C[C@@H]1CN(c2ccc(C#N)n3nccc23)C[C@H](CN2CCOC3(CCNCC3)C2)O1 [Example 71, 4-[(2R,6S)-2-methyl-6-(1-oxa-4,9-diazaspiro[5.5]undecan-4-ylmethyl)morpholin-4-yl]pyrazolo[1,5-a]pyridine-7-carbonitrile]
15 | 6.72 | C[C@@H]1CN(c2ccc(C#N)n3nccc23)C[C@H](CN2CCC3(CCCCN3)CC2)O1 [Example 47, 4-[(2S,6R)-2-(1,9-diazaspiro[5.5]undecan-9-ylmethyl)-6-methyl-morpholin-4-yl]pyrazolo[1,5-a]pyridine-7-carbonitrile]
16 | 6.07 | C[C@@H]1CN(c2ccc(C#N)n3nccc23)C[C@H](CN2CC3CCNCC32)O1 (stereo partly drawn) [Example 56, 4-[(2S,6R)-2-(3,8-diazabicyclo[4.2.0]octan-8-ylmethyl)-6-methyl-morpholin-4-yl]pyrazolo[1,5-a]pyridine-7-carbonitrile]
17 | 6.92 | C[C@@H]1CN(c2ccc(C#N)n3nccc23)C[C@H](CN2CCCC3(CNC3)C2)O1 [Example 33, 4-[(2S,6R)-2-(2,6-diazaspiro[3.5]nonan-6-ylmethyl)-6-methyl-morpholin-4-yl]pyrazolo[1,5-a]pyridine-7-carbonitrile]
18 | < 4.00 | C[C@@H]1CN(c2ccc(C#N)n3nccc23)C[C@H](CN2CC(N)C(F)(F)C2)O1 (stereo partly drawn) [Example 35, 4-[(2S,6R)-2-[(4-amino-3,3-difluoro-pyrrolidin-1-yl)methyl]-6-methyl-morpholin-4-yl]pyrazolo[1,5-a]pyridine-7-carbonitrile]
19 | 5.49 | C[C@@H]1CN(c2ccc(C#N)n3nccc23)C[C@H](CN2CC3CCC2CN3)O1 (stereo partly drawn) [Example 30, 4-[(2S,6R)-2-(2,5-diazabicyclo[2.2.2]octan-2-ylmethyl)-6-methyl-morpholin-4-yl]pyrazolo[1,5-a]pyridine-7-carbonitrile]
20 | 7.10 | C[C@@H]1CN(c2ccc(C#N)n3nccc23)C[C@H](CN2CC3(CCCNC3)C2)O1 [Example 10, 4-[(2S,6R)-2-(2,8-diazaspiro[3.5]nonan-2-ylmethyl)-6-methyl-morpholin-4-yl]pyrazolo[1,5-a]pyridine-7-carbonitrile]
21 | 6.70 | C[C@@H]1CN(c2ccc(C#N)n3nccc23)C[C@H](CN2CCC3NCC3C2)O1 (stereo partly drawn) [Example 70, 4-[(2S,6R)-2-(3,7-diazabicyclo[4.2.0]octan-3-ylmethyl)-6-methyl-morpholin-4-yl]pyrazolo[1,5-a]pyridine-7-carbonitrile]

Row | SMILES | pIC50
22 | C[C@@H]1CN(c2ccc(C#N)n3nccc23)C[C@H](CN2C3CNCC2COC3)O1 [Example 57, 4-[(2R,6S)-2-methyl-6-(3-oxa-7,9-diazabicyclo[3.3.1]nonan-9-ylmethyl)morpholin-4-yl]pyrazolo[1,5-a]pyridine-7-carbonitrile] | 5.00
23 | C[C@@H]1CN(c2ccc(C#N)n3nccc23)C[C@H](CN2CC3CCC(C2)N3)O1 [Example 31, 4-[(2S,6R)-2-(3,8-diazabicyclo[3.2.1]octan-3-ylmethyl)-6-methyl-morpholin-4-yl]pyrazolo[1,5-a]pyridine-7-carbonitrile] | 5.00
24 | C[C@@H]1CN(c2ccc(C#N)n3nccc23)C[C@H](CN2C3COCC2CC(N)C3)O1 (stereo partly drawn) [Example 58, 4-[(2S,6R)-2-[(7-amino-3-oxa-9-azabicyclo[3.3.1]nonan-9-yl)methyl]-6-methyl-morpholin-4-yl]pyrazolo[1,5-a]pyridine-7-carbonitrile] | 6.41
